Converted amounts (≈) assume the structure as drawn. “Also recorded” adds a separate entry of the source.
Legend:
Gram-negative strains = assay: MIC, micro-dilution method, Gram-negative strains as a group; type: cell-based; conditions: highest (maximal) concentration tested 100 μM, CLSI M7-A7, cation-adjusted MHB
From the text: S. aureus CH-91 was kindly provided by S. Takeuchi from Fukui Prefectural University, Japan (Takeuchi et al. [1999]). The strain has been deposited in the DSMZ collection under the number DSM 26258. Bacillus licheniformis NCTC 7224, Bacillus subtilis ATCC 6633, Lactococcus lactis subsp. lactis LOCK 0869, Micrococcus luteus strains DSMZ 20030 and CBM (clinical isolate), Sarcina lutea ATCC 9341, S. aureus strains ATCC 25923, M-122 (Polakowska et al. [2012]), Newman and RN4220, S. epidermidis ATCC 35347, Staphylococcus intermedius ATCC 29666, Staphylococcus pseudintermedius LMG 22219 (Devriese et al. [2005]), Staphylococcus saprophyticus ATCC 49453, Staphylococcus xylosus strains isolated from the skin of healthy chickens, Streptococcus mutans ATCC 25175, Streptococcus pneumoniae ATCC 49619, Escherichia coli K12 ATCC 10798, Klebsiella pneumoniae, Serratia marcescens, and Sphingomonas sp. AMC 3962 (Dziga et al. [2012]) were obtained from the collections of The Faculty of Biochemistry, Biophysics and Biotechnology, Jagiellonian University, Krakow, Poland. […]
The bactericidal activity of BacCH91 was determined using the micro-dilution method in compliance with Clinical and Laboratory Standards Institute guidelines M7-A7 (CLSI [2006]). […] After overnight incubation at 37 °C, the optical density (OD) at 600 nm was measured. […]

[1] = test system: Bacillus subtilis ATCC 6633; type: cell-based
From the text: (§1) S. aureus CH-91 was kindly provided by S. Takeuchi from Fukui Prefectural University, Japan (Takeuchi et al. [1999]). The strain has been deposited in the DSMZ collection under the number DSM 26258. Bacillus licheniformis NCTC 7224, Bacillus subtilis ATCC 6633, Lactococcus lactis subsp. lactis LOCK 0869, Micrococcus luteus strains DSMZ 20030 and CBM (clinical isolate), Sarcina lutea ATCC 9341, S. aureus strains ATCC 25923, M-122 (Polakowska et al. [2012]), Newman and RN4220, S. epidermidis ATCC 35347, Staphylococcus intermedius ATCC 29666, Staphylococcus pseudintermedius LMG 22219 (Devriese et al. [2005]), Staphylococcus saprophyticus ATCC 49453, Staphylococcus xylosus strains isolated from the skin of healthy chickens, Streptococcus mutans ATCC 25175, Streptococcus pneumoniae ATCC 49619, Escherichia coli K12 ATCC 10798, Klebsiella pneumoniae, Serratia marcescens, and Sphingomonas sp. AMC 3962 (Dziga et al. [2012]) were obtained from the collections of The Faculty of Biochemistry, Biophysics and Biotechnology, Jagiellonian University, Krakow, Poland. A list of strains used for assessment of the general occurrence of the bacteriocin gene is provided in the Electronic supplementary materials (ESM; Table S1). Gram-positive and Gram-negative bacteria were maintained at 37 °C in tryptic soy broth (TSB) and Luria-Bertani broth (both obtained from Sigma), respectively.
(§2) The bactericidal activity of BacCH91 was determined using the micro-dilution method in compliance with Clinical and Laboratory Standards Institute guidelines M7-A7 (CLSI [2006]). Briefly, the bacteria were either cultivated in cation-adjusted MHB to the early exponential phase or grown overnight on agar-solidified MHB supplemented with 2.5 % LHB in the case of Streptococcus spp. and L. lactis. Subsequently, the bacteria were diluted to 1 × 10^6 CFU/ml either in MHB or in MHB supplemented with 5 % LHB, in the case of the latter bacteria. Fifty-microliter portions of bacterial suspension were mixed with an equal volume of MHB containing serial twofold dilutions of bacteriocin. After overnight incubation at 37 °C, the optical density (OD) at 600 nm was measured. The MIC was defined as the minimum bacteriocin concentration for which the increase in OD was not observed compared to uninoculated broth.

[2] = test system: Escherichia coli K12 ATCC 10798; type: cell-based
From the text: as §1, §2

[3] = test system: Sphingomonas sp. AMC 3962; type: cell-based
From the text: as §1, §2

[4] = test system: Staphylococcus aureus ATCC 25923; type: cell-based
From the text: as §1, §2

[5] = test system: Staphylococcus aureus M-122; type: cell-based
From the text: as §1, §2

[6] = test system: Staphylococcus aureus Newman; type: cell-based
From the text: as §1, §2

[7] = test system: Staphylococcus pseudintermedius LMG 22219; type: cell-based
From the text: as §1, §2

[8] = test system: Streptococcus mutans ATCC 25175; type: cell-based
From the text: as §1, §2

[9] = test system: Streptococcus pneumoniae ATCC 49619; type: cell-based
From the text: as §1, §2

[10] = test system: various S. aureus strains; type: cell-based
From the text: as §1, §2

[11] = pH stability, residual activity by radial diffusion assay; type: physicochemical; conditions: 30 μM, S. lutea ATCC 9341, triplicate
Protocol: To test the pH stability of BacCH91, a water solution of the bacteriocin (final concentration, 30 μM) was evaporated in a vacuum centrifuge and re-dissolved in (a) 100 mM sodium citrate pH 3.0, 4.0, 5.0, and 6.0; […] The solutions were incubated for 3 h at RT, and the residual activity of the bacteriocin was determined using the radial diffusion assay. The temperature stability of BacCH91 (30 μM final concentration) was determined in 50 mM Tris–HCl pH 7.4, 0.15 M NaCl and 50 mM bis-Tris pH 6.4, 0.15 M NaCl. The solutions were incubated for 1, 6, and 24 h at 37, 60, 80, and 99 °C. […] All of the above experiments were performed in triplicate. The final results are presented as means ± SD.

[12] = test system: staphylococcal extracellular peptidases (aureolysin; staphopains A, B, and C; V8 peptidase); conditions: 30 μM, pH 6.4 or pH 7.5/7.8, enzyme/bacteriocin 1:20 by weight, 1 h at 37 °C; radial diffusion assay and HPLC; triplicate
Protocol: For pH, temperature, and protease resistance assays, the residual activity of BacCH91 was determined using the radial diffusion assay (Lemos Miguel et al. [2008]). In brief, plates were prepared containing 200× diluted overnight culture of S. lutea ATCC 9341 in TSB agar (1 %, w/v). Wells (2.4 mm diameter) were cut in the agar and filled with 10 μl of the BacCH91 preparation for testing. Following overnight incubation at 37 °C, the residual activity was measured as the diameter of inhibition zones.
We evaluated the susceptibility of BacCH91 to proteolysis by aureolysin; staphopains A, B, and C; V8 peptidase (Biocentrum); bovine alpha-chymotrypsin and TPCK-treated trypsin (Sigma); human elastase and cathepsin G (Biocentrum); pepsin from porcine gastric mucosa (Sigma); and proteinase K (A&A Biotechnology). […] The residual activity was determined with the radial diffusion assay using S. lutea as an indicator strain, and the bacteriocin molecule integrity was assessed using HPLC. […]

## C/C=C(\NC(=O)[C@H](CCCCN)NC(=O)CNC(=O)[C@@H]1CS[C@@H](C)[C@@H](NC(=O)[C@@H]2CSC[C@@H](NC(=O)/C(=C/C)NC(=O)[C@@H](N)[C@@H](C)CC)C(=O)N[C@@H](Cc3ccccc3)C(=O)N[C@@H]([C@@H](C)CC)C(=O)NCC(=O)N2)C(=O)N2CCC[C@H]2C(=O)NCC(=O)N1)C(=O)NCC(=O)N[C@@H]1CSC[C@@H]2NC(=O)[C@H](Cc3ccccc3)NC(=O)[C@@H](CS/C=C\NC2=O)NC(=O)[C@H](CC(N)=O)NC(=O)[C@H](Cc2ccccc2)NC1=O [BacCH91]
Gram-negative strains
  susceptibility of Gram-negative strains to BacCH91: ineffective; also recorded: None of the Gram-negative species assayed were susceptible
[1]
  MIC: 2.6 µM (≈ 5.4 µg/mL)
[2]
  MIC: >100 µM
[3]
  MIC: >100 µM
[4]
  MIC: 6.0 µM (≈ 12.5 µg/mL)
[5]
  MIC: 4.0 µM (≈ 8.31 µg/mL)
[6]
  MIC: 6.0 µM (≈ 12.5 µg/mL)
[7]
  MIC: 1.5 µM (≈ 3.11 µg/mL)
[8]
  MIC: 2.0 µM (≈ 4.15 µg/mL)
[9]
  MIC: 1.6 µM (≈ 3.32 µg/mL)
[10]
  MIC: 6.0 µM (≈ 12.5 µg/mL)
[11]; 100 mM 3-cyclohexylamino-1-propanesulphonic acid-NaOH pH 11.0, 3 h at RT
  residual bactericidal activity after incubation at pH 11.0: complete inactivation
[11]; 100 mM Tris–HCl pH 7.0, 8.0, 9.0 and 100 mM CAPS-NaOH pH 10.0, 11.0, 3 h at RT
  residual bactericidal activity after incubation at pH 7.0 and higher: gradual loss of bactericidal activity
[11]; 100 mM sodium citrate pH 3.0, 4.0, 5.0, 6.0, 3 h at RT
  residual bactericidal activity after incubation at pH 3.0–6.0: retained full bactericidal activity
[12]
  effect of staphylococcal peptidases on BacCH91: not affected

— publication PMC3724985, “Isolation, biochemical characterization, and cloning of a bacteriocin from the poultry-associated Staphylococcus aureus strain CH-91” (Applied Microbiology and Biotechnology, 2012)
